According to ChEMBL document CHEMBL1743201, “Casarett and Doull's Toxicology The Basic Science of Poisons, 7th edition” (2008):

Molecular target: T1, Sulfotransferase 1E1 (Homo sapiens, UniProt P49888)
T1 sequence (P49888 whole entry): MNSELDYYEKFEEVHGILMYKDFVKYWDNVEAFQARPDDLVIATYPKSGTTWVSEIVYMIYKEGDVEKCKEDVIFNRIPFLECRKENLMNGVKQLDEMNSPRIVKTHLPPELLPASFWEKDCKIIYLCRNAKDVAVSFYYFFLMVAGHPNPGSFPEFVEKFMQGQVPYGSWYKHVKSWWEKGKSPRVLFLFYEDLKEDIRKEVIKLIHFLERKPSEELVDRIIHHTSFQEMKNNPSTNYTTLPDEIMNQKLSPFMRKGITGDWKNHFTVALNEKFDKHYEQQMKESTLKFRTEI
Assay: Major substrate of human cytosolic sulfotransferase SULT1E1
Type: ADME
Conditions: not given

Question: With `C[C@]12CC[C@@H]3c4ccc(O)c(O)c4CC[C@H]3[C@@H]1CC[C@@H]2O` as the compound, how does the Activity read?
Answer: Substrate

Question: `C[C@]12CC[C@@H]3c4cc(O)c(O)cc4CC[C@H]3[C@@H]1CCC2=O` [2-HYDROXYESTRONE] was tested. Which Activity did it give?
Answer: Substrate

Question: How did the Activity turn out when `O=C(O)Cc1cn(-c2ccc(O)cc2)nc1-c1ccc(Cl)cc1` was run?
Answer: Substrate

Question: `O=C1C[C@@H](c2ccc(O)cc2)Oc2cc(O)cc(O)c21` [NARINGENIN] was tested. Which Activity did it give?
Answer: Substrate

Question: `C[C@]12CC[C@@H]3c4cc(O)c(O)cc4CC[C@H]3[C@@H]1CC[C@@H]2O` was tested. Which Activity did it give?
Answer: Substrate

Question: With `C[C@]12CCc3c(ccc4cc(O)ccc34)[C@@H]1CCC2=O` [EQUILENIN] as the compound, how does the Activity read?
Answer: Substrate

Question: Which Activity does the source give for `CC/C(=C(\c1ccccc1)c1ccc(OCCN(C)C)cc1)c1ccccc1` [TAMOXIFEN] here?
Answer: Substrate

Molecular target: T2, Glutathione S-transferase A1 (Homo sapiens, UniProt P08263)
T2 sequence (P08263 whole entry): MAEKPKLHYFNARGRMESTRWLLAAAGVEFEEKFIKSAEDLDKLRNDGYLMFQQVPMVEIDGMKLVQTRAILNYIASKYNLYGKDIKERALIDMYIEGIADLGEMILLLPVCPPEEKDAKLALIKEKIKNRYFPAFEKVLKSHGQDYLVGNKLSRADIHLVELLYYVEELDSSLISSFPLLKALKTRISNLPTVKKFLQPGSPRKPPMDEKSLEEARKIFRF
Assay: Substrates for human cytosolic glutathione transferase GSTA1
Type: ADME
Conditions: not given

Question: For `OC1c2ccc3c4ccccc4c4ccccc4c3c2C2OC2C1O` (stereo unspecified) [BENZO[G]CHRYSENE DIOL EPOXIDE], which Activity is on record?
Answer: Substrate

Question: With `CS(=O)(=O)OCCCCOS(C)(=O)=O` [BUSULFAN] as the compound, how does the Activity read?
Answer: Substrate

Question: `Cn1c(N)nc2ncc(-c3ccccc3)cc21` [2-AMINO-1-METHYL-6- PHENYLIMIDAZO[4,5- B]PYRIDINE] was tested. Which Activity did it give?
Answer: Substrate

Question: How did the Activity turn out when `OC1c2ccc3ccc4ccccc4c3c2C2OC2C1O` (stereo unspecified) [BENZO[C]PHENANTHRENE DIOL EPOXIDE] was run?
Answer: Substrate

Molecular target: T3, UDP-glucuronosyltransferase 1A9 (Homo sapiens, UniProt O60656)
T3 sequence (O60656 whole entry): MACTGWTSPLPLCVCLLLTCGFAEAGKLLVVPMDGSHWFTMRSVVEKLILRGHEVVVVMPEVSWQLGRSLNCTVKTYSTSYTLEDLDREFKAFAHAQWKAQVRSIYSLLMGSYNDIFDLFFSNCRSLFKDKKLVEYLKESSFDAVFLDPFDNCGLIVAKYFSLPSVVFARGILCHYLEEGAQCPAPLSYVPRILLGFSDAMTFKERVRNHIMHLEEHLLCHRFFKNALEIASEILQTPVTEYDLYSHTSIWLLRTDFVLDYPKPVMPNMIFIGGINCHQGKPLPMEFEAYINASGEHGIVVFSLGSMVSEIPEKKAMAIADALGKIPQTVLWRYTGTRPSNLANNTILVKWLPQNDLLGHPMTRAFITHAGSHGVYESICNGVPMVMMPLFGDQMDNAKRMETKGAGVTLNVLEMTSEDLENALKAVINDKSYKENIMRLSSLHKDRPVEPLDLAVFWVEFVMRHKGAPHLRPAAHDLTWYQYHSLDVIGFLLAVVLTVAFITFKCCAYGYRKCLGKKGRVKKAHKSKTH
Assay: Substrate of human UDP-glucuronosyltransferase UGT1A9
Type: ADME
Conditions: not given

Question: `CC(C)OC(=O)C(C)(C)Oc1ccc(C(=O)c2ccc(Cl)cc2)cc1` [FENOFIBRATE] was tested. Which Activity did it give?
Answer: Substrate

Question: For `CC(C)c1cccc(C(C)C)c1O` [PROPOFOL], which Activity is on record?
Answer: Substrate

Question: Which Activity does the source give for `O=C(O)c1cc(-c2ccc(F)cc2F)ccc1O` [DIFLUNISAL] here?
Answer: Substrate

Question: `O=C(O)c1ccccc1O` [SALICYLIC ACID] was tested. Which Activity did it give?
Answer: Substrate

Question: With `CCCCNc1cc(C(=O)O)cc(S(N)(=O)=O)c1Oc1ccccc1` [BUMETANIDE] as the compound, how does the Activity read?
Answer: Substrate

Molecular target: Sulfotransferase 1A1 (Homo sapiens, UniProt P50225)
Sequence (P50225 whole entry): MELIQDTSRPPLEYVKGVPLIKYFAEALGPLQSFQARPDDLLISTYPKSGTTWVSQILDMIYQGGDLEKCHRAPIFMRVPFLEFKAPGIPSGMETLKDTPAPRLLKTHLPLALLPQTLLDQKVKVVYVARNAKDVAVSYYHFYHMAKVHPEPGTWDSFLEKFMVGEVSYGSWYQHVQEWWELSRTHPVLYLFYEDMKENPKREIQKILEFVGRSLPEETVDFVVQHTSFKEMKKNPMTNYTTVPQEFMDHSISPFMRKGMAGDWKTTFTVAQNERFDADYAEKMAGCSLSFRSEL
Assay: Major substrate of human cytosolic sulfotransferase SULT1A1
Type: ADME
Conditions: not given

Question: How did the Activity turn out when `CC(C)[N+](=O)[O-]` was run?
Answer: Substrate

Question: For `CN1CCc2cccc3c2[C@H]1Cc1ccc(O)c(O)c1-3` [APOMORPHINE], which Activity is on record?
Answer: Substrate

Question: Which Activity does the source give for `Cc1ccc(O)cc1` [p-CRESOL] here?
Answer: Substrate

Question: `CCc1ccc(O)cc1` was tested. Which Activity did it give?
Answer: Substrate

Question: With `Cn1c(NO)nc2ncc(-c3ccccc3)cc21` as the compound, how does the Activity read?
Answer: Substrate

Question: `Nc1cc(N2CCCCC2)nc(N)[n+]1[O-]` [MINOXIDIL] was tested. Which Activity did it give?
Answer: Substrate

Molecular target: T4, Sulfotransferase 2A1 (Homo sapiens, UniProt Q06520)
T4 sequence (Q06520 whole entry): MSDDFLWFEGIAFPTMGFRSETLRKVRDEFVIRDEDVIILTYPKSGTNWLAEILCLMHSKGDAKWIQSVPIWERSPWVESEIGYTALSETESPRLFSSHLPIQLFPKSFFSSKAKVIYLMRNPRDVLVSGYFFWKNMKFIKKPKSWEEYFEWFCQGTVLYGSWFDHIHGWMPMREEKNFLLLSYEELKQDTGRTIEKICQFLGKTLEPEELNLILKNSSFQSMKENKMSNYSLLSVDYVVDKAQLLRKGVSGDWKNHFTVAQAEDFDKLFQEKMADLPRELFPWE
Assay: Major substrate of human cytosolic sulfotransferase SULT2A1
Type: ADME
Conditions: not given

Question: With `OCc1c2ccccc2c2ccc3cccc4ccc1c2c43` as the compound, how does the Activity read?
Answer: Substrate

Question: Which Activity does the source give for `CCN(CC)CCNc1ccc(CO)c2sc3ccccc3c(=O)c12` [HYCANTHONE] here?
Answer: Substrate

Question: How did the Activity turn out when `CCCC1O[C@@H]2C[C@H]3[C@@H]4CCC5=CC(=O)C=C[C@]5(C)[C@H]4[C@@H](O)C[C@]3(C)[C@]2(C(=O)CO)O1` (stereo partly specified) [BUDESONIDE] was run?
Answer: Substrate

Molecular target: T5, Cytochrome P450 1A2 (Homo sapiens, UniProt P05177)
T5 sequence (P05177 whole entry): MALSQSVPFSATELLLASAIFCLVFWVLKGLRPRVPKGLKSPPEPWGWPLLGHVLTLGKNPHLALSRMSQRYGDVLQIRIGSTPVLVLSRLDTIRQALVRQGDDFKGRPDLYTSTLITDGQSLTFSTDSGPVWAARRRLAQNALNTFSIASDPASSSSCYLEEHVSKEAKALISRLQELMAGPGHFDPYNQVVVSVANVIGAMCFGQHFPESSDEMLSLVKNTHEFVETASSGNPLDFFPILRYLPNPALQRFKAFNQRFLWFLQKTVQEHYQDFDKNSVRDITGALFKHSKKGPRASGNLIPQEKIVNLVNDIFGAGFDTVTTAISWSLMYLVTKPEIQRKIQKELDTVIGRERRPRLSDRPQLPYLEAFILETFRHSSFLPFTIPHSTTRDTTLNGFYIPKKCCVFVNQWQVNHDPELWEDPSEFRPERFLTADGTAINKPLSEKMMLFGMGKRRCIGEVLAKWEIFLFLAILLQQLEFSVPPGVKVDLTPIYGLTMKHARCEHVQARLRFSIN
Assay: Clinically relevant substrates of human liver microsomal P450 enzymes, isoform CYP1A2
Type: ADME
Conditions: microsomes

Question: With `Cn1c(=O)c2[nH]cnc2n(C)c1=O.O` [THEOPHYLLINE] as the compound, how does the Activity read?
Answer: Substrate

Question: How did the Activity turn out when `Cc1[nH]cnc1CN1CCc2c(c3ccccc3n2C)C1=O` [ALOSETRON] was run?
Answer: Substrate

Question: With `Clc1ccc2nsnc2c1NC1=NCCN1` [TIZANIDINE] as the compound, how does the Activity read?
Answer: Substrate

Question: Which Activity does the source give for `Nc1c2c(nc3ccccc13)CCCC2` [TACRINE] here?
Answer: Substrate

Question: With `CNCC[C@H](Oc1cccc2ccccc12)c1cccs1` [DULOXETINE] as the compound, how does the Activity read?
Answer: Substrate

Question: For `CCOc1ccc2nc3ccc(=O)cc-3oc2c1` [ETHOXYRESORUFIN], which Activity is on record?
Answer: Substrate

Question: Which Activity does the source give for `Cn1c(=O)c2c(ncn2C)n(C)c1=O` [CAFFEINE] here?
Answer: Substrate

Question: Which Activity does the source give for `CCOc1ccc(NC(C)=O)cc1` [PHENACETIN] here?
Answer: Substrate

Molecular target: T6, UDP-glucuronosyltransferase 2B7 (Homo sapiens, UniProt P16662)
T6 sequence (P16662 whole entry): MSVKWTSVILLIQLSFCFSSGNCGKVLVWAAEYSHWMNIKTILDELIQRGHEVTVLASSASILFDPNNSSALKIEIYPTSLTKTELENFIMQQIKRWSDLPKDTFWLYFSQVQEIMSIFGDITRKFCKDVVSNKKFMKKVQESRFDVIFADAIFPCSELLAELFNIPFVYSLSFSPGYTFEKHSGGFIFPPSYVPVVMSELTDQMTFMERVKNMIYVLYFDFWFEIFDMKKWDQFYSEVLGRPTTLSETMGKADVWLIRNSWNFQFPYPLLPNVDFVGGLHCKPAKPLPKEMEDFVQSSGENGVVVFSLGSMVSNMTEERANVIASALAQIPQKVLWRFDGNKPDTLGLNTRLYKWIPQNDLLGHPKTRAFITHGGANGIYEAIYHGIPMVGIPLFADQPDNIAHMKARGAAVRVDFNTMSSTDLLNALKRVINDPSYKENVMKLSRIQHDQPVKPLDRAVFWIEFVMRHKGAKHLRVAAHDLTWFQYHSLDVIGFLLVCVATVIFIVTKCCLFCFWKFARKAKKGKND
Assay: Substrate of human UDP-glucuronosyltransferase UGT2B7
Type: ADME
Conditions: not given

Question: `CC(C)(Oc1ccc(Cl)cc1)C(=O)O` [CLOFIBRIC ACID] was tested. Which Activity did it give?
Answer: Substrate

Question: For `CN1CC[C@]23c4c5ccc(O)c4O[C@H]2[C@@H](O[C@@H]2O[C@H](C(=O)O)[C@@H](O)[C@H](O)[C@H]2O)C=C[C@H]3[C@H]1C5` [MORPHINE GLUCURONIDE], which Activity is on record?
Answer: Substrate

Question: For `Cc1cc(CC(=O)O)n(C)c1C(=O)c1ccc(Cl)cc1` [ZOMEPIRAC], which Activity is on record?
Answer: Substrate

Question: For `CC(C(=O)O)c1ccc(C(=O)c2ccccc2)s1` (stereo unspecified) [TIAPROFENIC ACID], which Activity is on record?
Answer: Substrate

Question: Which Activity does the source give for `Cc1cn([C@H]2C[C@H](N=[N+]=[N-])[C@@H](CO)O2)c(=O)[nH]c1=O` [ZIDOVUDINE] here?
Answer: Substrate

Question: Which Activity does the source give for `CC(C(=O)O)c1ccc2oc(-c3ccc(Cl)cc3)nc2c1` (stereo unspecified) [BENOXAPROFEN] here?
Answer: Substrate

Question: How did the Activity turn out when `C=CCN1CC[C@]23c4c5ccc(O)c4O[C@H]2C(=O)CC[C@@]3(O)[C@H]1C5` [NALOXONE] was run?
Answer: Substrate

Molecular target: T7, UDP-glucuronosyltransferase 1A8 (Homo sapiens, UniProt Q9HAW9)
T7 sequence (Q9HAW9 whole entry): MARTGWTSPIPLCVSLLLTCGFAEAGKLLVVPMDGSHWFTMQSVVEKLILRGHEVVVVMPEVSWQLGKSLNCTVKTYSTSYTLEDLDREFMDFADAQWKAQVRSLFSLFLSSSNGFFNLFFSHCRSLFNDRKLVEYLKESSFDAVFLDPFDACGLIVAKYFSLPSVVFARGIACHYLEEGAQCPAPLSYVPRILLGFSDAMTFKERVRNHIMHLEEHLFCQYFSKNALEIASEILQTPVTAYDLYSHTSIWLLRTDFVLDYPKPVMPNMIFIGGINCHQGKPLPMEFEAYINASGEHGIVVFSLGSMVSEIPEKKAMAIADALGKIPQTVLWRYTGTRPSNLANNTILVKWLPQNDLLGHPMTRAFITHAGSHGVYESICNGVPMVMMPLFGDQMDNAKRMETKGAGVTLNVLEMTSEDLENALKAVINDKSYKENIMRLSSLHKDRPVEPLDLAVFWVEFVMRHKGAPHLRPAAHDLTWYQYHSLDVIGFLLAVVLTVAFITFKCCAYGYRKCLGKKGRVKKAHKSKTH
Assay: Substrate of human UDP-glucuronosyltransferase UGT1A8
Type: ADME
Conditions: not given

Question: For `O=C(O)c1cc(-c2ccc(F)cc2F)ccc1O` [DIFLUNISAL], which Activity is on record?
Answer: Substrate

Question: How did the Activity turn out when `CC(C)(Oc1ccc(Cl)cc1)C(=O)O` [CLOFIBRIC ACID] was run?
Answer: Substrate

Question: For `O=C(O)c1cccnc1Nc1cccc(C(F)(F)F)c1` [NIFLUMIC ACID], which Activity is on record?
Answer: Substrate

Question: Which Activity does the source give for `Oc1cccc2cccnc12` [OXYQUINOLINE] here?
Answer: Substrate

Question: Which Activity does the source give for `O=C1c2ccccc2C(=O)c2ccccc21` [ANTHRAQUINONE] here?
Answer: Substrate

Question: For `CC(C)(Oc1ccc(C2CC2(Cl)Cl)cc1)C(=O)O` (stereo unspecified) [CIPROFIBRATE], which Activity is on record?
Answer: Substrate
